This is an account of results in PubChem BioAssay (NCI).

Among the test systems are HCT-116 colon; K-562 leukemia; MCF7 breast; HOP-62 NSCLC; COLO 205 colon; HCC-2998 colon; T-47D breast; OVCAR-4 ovarian; ACHN renal.
Test in all cases: NCI tumour cell line growth inhibition, 48 h

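Following 48 hours of exposure in 96-well plates, responses at five concentrations were used to interpolate endpoints linearly. GI50 is the concentration that inhibits growth by half. TGI: total growth inhibition.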

Take `CC(OP(=O)(O)O)C(N)C(=O)O` (configuration not stated): the TGI in the assay with HCT-116 colon, with K-562 leukemia, in the assay on MCF7 breast, in the assay on HOP-62 NSCLC, in the assay on COLO 205 colon and in the assay with HCC-2998 colon was more than 100 µM each time. Besides, the TGI with T-47D breast, in the assay on OVCAR-4 ovarian and with ACHN renal was more than 100 µM in each case.

For `O=c1cc(-c2ccccc2)oc2c1ccc1[nH]c3ccccc3c(=O)c12`, the TGI in the assay with HCT-116 colon, with K-562 leukemia, in the assay with MCF7 breast, in the assay on HOP-62 NSCLC, in the assay on COLO 205 colon and with HCC-2998 colon was more than 100 µM in each case. The TGI in the assay on T-47D breast, in the assay with OVCAR-4 ovarian and in the assay with ACHN renal was more than 100 µM throughout.

Turning to `Cc1cc2c(c(C(=O)NCC(=O)O)c1)Oc1c(cc(C)cc1C(=O)NCC(=O)O)S2`, the TGI with HCT-116 colon, in the assay on K-562 leukemia, with MCF7 breast, in the assay with HOP-62 NSCLC, in the assay on COLO 205 colon and in the assay with HCC-2998 colon was more than 100 µM in each case. Besides, the TGI in the assay with T-47D breast, in the assay on OVCAR-4 ovarian and with ACHN renal was more than 100 µM each time.

For `COC(=O)c1onc(C2OC(C)(C)OC2C(O)COC(c2ccccc2)(c2ccccc2)c2ccccc2)c1C(=O)OC` (configuration not stated), the TGI with HCT-116 colon, in the assay on K-562 leukemia, in the assay with MCF7 breast, in the assay on HOP-62 NSCLC, with COLO 205 colon and with HCC-2998 colon was more than 100 µM throughout. Besides, the TGI with T-47D breast, in the assay on OVCAR-4 ovarian and in the assay with ACHN renal was more than 100 µM in each case.

Consider `Oc1ccc2ccccc2c1OCc1nnc(CCCCCCCCc2nnc(COc3c(O)ccc4ccccc34)n2Nc2ccccc2)n1Nc1ccccc1`, for which the TGI is 26 µM with HCT-116 colon; more than 100 µM in the assay with K-562 leukemia; more than 100 µM in the assay with MCF7 breast; 41.9 µM in the assay on HOP-62 NSCLC; 1.28 µM with COLO 205 colon; 31 µM in the assay with HCC-2998 colon. Also, the TGI with T-47D breast, in the assay on OVCAR-4 ovarian and with ACHN renal was more than 100 µM in each case.

For the compound `Clc1ccc(-c2nn3c(COc4cccc(OCc5nnc6sc(-c7ccc(Cl)cc7)nn56)c4)nnc3s2)cc1`, the TGI is 44.7 µM in the assay on HCT-116 colon; more than 100 µM in the assay on K-562 leukemia; 27.2 µM in the assay on MCF7 breast; more than 100 µM with HOP-62 NSCLC; 82.9 µM in the assay with COLO 205 colon; 96.2 µM in the assay on HCC-2998 colon. Besides, the TGI turned out to be 57 µM in the assay on T-47D breast, 27.6 µM in the assay with OVCAR-4 ovarian and 68.4 µM with ACHN renal.

Consider `CC/C=C/c1cc2c(cc1O)CCC1C2CC[C@@]2(C)C1CC[C@@H]2O` (some centres not stated), for which the TGI was 14.3 µM in the assay with HCT-116 colon; 7.66 µM in the assay with K-562 leukemia; 10.1 µM with MCF7 breast; 16.7 µM in the assay on HOP-62 NSCLC; 27.5 µM in the assay on COLO 205 colon; 33.2 µM in the assay with HCC-2998 colon. Moreover, the values for the TGI in the assay with T-47D breast, in the assay on OVCAR-4 ovarian and in the assay on ACHN renal were 15 µM, 35.3 µM and 17.9 µM, respectively. In addition, the GI50 with HOP-62 NSCLC was 2.69 µM.

Regarding `O=[N+]([O-])c1ccc(N2N=C(c3c(O)ccc4ccccc34)CC2c2ccc(Cl)cc2)c([N+](=O)[O-])c1` (configuration not stated), the TGI in the assay with HCT-116 colon is 37.2 µM; in the assay on K-562 leukemia, 45.6 µM; in the assay on MCF7 breast, more than 100 µM; in the assay with HOP-62 NSCLC, 61.6 µM; in the assay with COLO 205 colon, 29.5 µM; in the assay on HCC-2998 colon it was more than 100 µM. In addition, the TGI in the assay with T-47D breast, in the assay with OVCAR-4 ovarian and in the assay on ACHN renal was more than 100 µM each time.

Turning to `O=C(O)Cn1c2c(c3c1-c1ccccc1C3=O)C(=O)CCC2`, the GI50 in the assay with HCT-116 colon, with K-562 leukemia, in the assay on MCF7 breast, in the assay on HOP-62 NSCLC, in the assay with COLO 205 colon and in the assay with HCC-2998 colon was more than 100 µM each time. For the same compound, the GI50 in the assay on T-47D breast, in the assay with OVCAR-4 ovarian and in the assay on ACHN renal was more than 100 µM throughout. In addition, the TGI in the assay with HCT-116 colon, in the assay on K-562 leukemia, in the assay with MCF7 breast, in the assay on HOP-62 NSCLC, in the assay on COLO 205 colon and in the assay on HCC-2998 colon was more than 100 µM throughout. The TGI in the assay with T-47D breast, in the assay on OVCAR-4 ovarian and with ACHN renal was more than 100 µM in each case.

Turning to `CSc1nnc(SCc2nn3c(=O)cc(C)nc3s2)s1`, the TGI in the assay with HCT-116 colon, with K-562 leukemia, with MCF7 breast, in the assay on HOP-62 NSCLC, with COLO 205 colon and with HCC-2998 colon was more than 100 µM each time. For the same compound, the TGI with T-47D breast, with OVCAR-4 ovarian and in the assay with ACHN renal was more than 100 µM each time.

Turning to `O=C1C=CC2(O[C@H](C3CCCCC3)[C@@H](C3CCCCC3)O2)C(SC(=O)c2ccccc2)C1` (some centres not stated), the TGI in the assay with HCT-116 colon turned out to be 1.75 µM; in the assay on K-562 leukemia it was 4.73 µM; with MCF7 breast it was 5.08 µM; in the assay with HOP-62 NSCLC, 9.57 µM; in the assay on COLO 205 colon, 15 µM; with HCC-2998 colon, 5.52 µM. In addition, the TGI came out at 1.94 µM in the assay with T-47D breast, 4.01 µM in the assay on OVCAR-4 ovarian and 6.43 µM in the assay on ACHN renal.

Regarding `Cc1cc(N2CCCCC2)nc2ccc(Cc3ccc4nc(N5CCCCC5)cc(C)c4c3)cc12`, the TGI in the assay with HCT-116 colon, in the assay with K-562 leukemia, with MCF7 breast, in the assay on HOP-62 NSCLC, in the assay on COLO 205 colon and in the assay on HCC-2998 colon was more than 100 µM each time. Also, the TGI in the assay on T-47D breast, in the assay on OVCAR-4 ovarian and in the assay on ACHN renal was more than 100 µM in each case.

For the compound `CC(C)(C)c1cc(OCc2nnc3sc(Cc4ccccc4)nn23)c(Cl)cc1OCc1nnc2sc(Cc3ccccc3)nn12`, the TGI in the assay on HCT-116 colon is 75.2 µM; in the assay with K-562 leukemia it was more than 100 µM; in the assay on MCF7 breast it was 37.2 µM; in the assay on HOP-62 NSCLC, more than 100 µM; in the assay on COLO 205 colon it was more than 100 µM; in the assay on HCC-2998 colon it was 20.9 µM. Besides, the TGI with T-47D breast is 38.5 µM; with OVCAR-4 ovarian it was more than 100 µM; with ACHN renal, 68 µM.
